Eleven compounds from PubChem BioAssay AID180 (DTP/NCI, 2004) can be followed below.

Values joined by “and” are separate entries in the source; they are usually repeats but may differ in a detail not shown here. Identical values can stand only once.

For the assay, the system named is BDF1 mice, Adenocarcinoma 755 s.c., tumor weight T/C. In words: NCI In Vivo Anticancer Drug Screen. Data for tumor model Adenocarcinoma 755 (subcutaneous) in B6D2F1 (BDF1) mice. The following applies: endpoint: mean tumor weight, higher = larger tumour. In a few lines: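 Values express treated (T) relative to vehicle-dosed control (C) animals, based on survival or tumour size measured after compound treatment of mice bearing a transplanted tumour.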

Setting [1] is: dose: 12.5 mg/kg/injection, schedule: Q01DX011 (ip), vehicle: carboxymethylcellulose (CMC).
Setting [2] is: dose: 15.0 mg/kg/injection, schedule: Q01DX011 (ip), vehicle: methylcellulose (MC).
Setting [3] is: dose: 25.0 mg/kg/injection, schedule: Q01DX011 (ip), vehicle: carboxymethylcellulose (CMC).
[4] abbreviates: dose: 30.0 mg/kg/injection, schedule: Q01DX011 (ip), vehicle: carboxymethylcellulose (CMC).
The mark [5] stands for this setting: dose: 60.0 mg/kg/injection, schedule: Q01DX011 (ip), vehicle: carboxymethylcellulose (CMC).
[6] abbreviates: dose: 120.0 mg/kg/injection, schedule: Q01DX011 (ip), vehicle: carboxymethylcellulose (CMC).
The mark [7] stands for this setting: dose: 240.0 mg/kg/injection, schedule: Q01DX011 (ip), vehicle: carboxymethylcellulose (CMC).
The mark [8] stands for this setting: dose: 6.25 mg/kg/injection, schedule: Q01DX011 (ip), vehicle: saline.
Where [9] appears, read: dose: 12.5 mg/kg/injection, schedule: Q01DX011 (ip), vehicle: saline.
Where [10] appears, read: dose: 25.0 mg/kg/injection, schedule: Q01DX011 (ip), vehicle: saline.

`CCSc1nc(Cl)cc(Sc2nc(N)nc3nc[nH]c23)n1`: the T/C was 84 % of control (dose: 2.5 mg/kg/injection, schedule: Q01DX011 (ip), vehicle: methylcellulose (MC)); 65 % of control (dose: 5.0 mg/kg/injection, schedule: Q01DX011 (ip), vehicle: methylcellulose (MC)); 80 % of control (dose: 10.0 mg/kg/injection, schedule: Q01DX011 (ip), vehicle: methylcellulose (MC)); 82 % of control under setting [1]; 40 % of control under setting [2]; 6 % of control (dose: 18.0 mg/kg/injection, schedule: Q01DX011 (ip), vehicle: methylcellulose (MC)). Further, the T/C runs as follows: under setting [3], 69 % of control; (dose: 36.0 mg/kg/injection, schedule: Q01DX011 (ip), vehicle: methylcellulose (MC)) 20 % of control; (dose: 50.0 mg/kg/injection, schedule: Q01DX011 (ip), vehicle: carboxymethylcellulose (CMC)) 24 % of control; (dose: 72.0 mg/kg/injection, schedule: Q01DX011 (ip), vehicle: methylcellulose (MC)) 16 % of control; (dose: 100.0 mg/kg/injection, schedule: Q01DX011 (ip), vehicle: carboxymethylcellulose (CMC)) 1 % of control; (dose: 144.0 mg/kg/injection, schedule: Q01DX011 (ip), vehicle: methylcellulose (MC)) 15 % of control. Further, where the note is “dose: 200.0 mg/kg/injection, schedule: Q01DX011 (ip), vehicle: carboxymethylcellulose (CMC)”, the T/C is 3 % of control.
Take `CSc1nc(N)nc2c1n(C)c[n+]2C`: the T/C is, setting by setting: under setting [4], 97 % of control; under setting [5], 99 % of control; under setting [6], 66 % of control; under setting [7], 89 % of control.
Consider `c1ccc(N2N=C3N(c4ccccc4)C2N3c2ccccc2)cc1`, for which, for the setting “dose: 15.0 mg/kg/injection, schedule: Q01DX011 (ip), vehicle: other”, the T/C was 87 % of control.
For the compound `CC(=O)OCC1OC(n2cnc3c(N)ncnc32)C(OC(C)=O)C1OC(C)=O` (configuration not stated), the T/C is 150 % of control under setting [4], 113 % of control under setting [6] and 103 % of control under setting [7].
Consider `Nc1nc2c([nH]c(=S)n2C2OC(CO)C(O)C2O)c(=O)[nH]1` (configuration not stated), for which the T/C is 89 % of control under setting [4], 156 % of control under setting [5], 112 % of control under setting [6] and 110 % of control under setting [7].
On to `CC(=O)N1CCCCC1`, for which the T/C runs as follows: (dose: 12.5 mg/kg/injection, schedule: Q01DX011 (ip), vehicle: other) 92 % of control; (dose: 25.0 mg/kg/injection, schedule: Q01DX011 (ip), vehicle: other) 69 % of control; (dose: 50.0 mg/kg/injection, schedule: Q01DX011 (ip), vehicle: other) 73 % of control; (dose: 100.0 mg/kg/injection, schedule: Q01DX011 (ip), vehicle: other) 85 % of control.
Turning to `O=P1(N(CCCl)CCCl)NCCCO1` (configuration not stated), the T/C under setting [8] was 87 % of control; the T/C (dose: 7.13 mg/kg/injection, schedule: Q01DX011 (ip), vehicle: carboxymethylcellulose (CMC)) was 59 % of control; the T/C (dose: 7.66 mg/kg/injection, schedule: Q01DX011 (ip), vehicle: carboxymethylcellulose (CMC)) is 92 % of control; the T/C (dose: 10.22 mg/kg/injection, schedule: Q01DX011 (ip), vehicle: carboxymethylcellulose (CMC)) was 92 % of control; the T/C (dose: 11.4 mg/kg/injection, schedule: Q01DX011 (ip), vehicle: carboxymethylcellulose (CMC)) was 46 % of control; the T/C (dose: 12.25 mg/kg/injection, schedule: Q01DX011 (ip), vehicle: carboxymethylcellulose (CMC)) is 52 % of control. For the same compound, the T/C runs as follows: under setting [1], 57 % of control; under setting [9], 36 % of control and 60 % of control; (dose: 14.25 mg/kg/injection, schedule: Q01DX011 (ip), vehicle: carboxymethylcellulose (CMC)) 22 % of control and 29 % of control; (dose: 19.0 mg/kg/injection, schedule: Q01DX011 (ip), vehicle: carboxymethylcellulose (CMC)) 22 % of control; (dose: 20.43 mg/kg/injection, schedule: Q01DX011 (ip), vehicle: carboxymethylcellulose (CMC)) 66 % of control; under setting [3], 8 % of control. Also, the T/C by setting is: under setting [10], 30 % of control and 55 % of control; (dose: 28.5 mg/kg/injection, schedule: Q01DX011 (ip), vehicle: carboxymethylcellulose (CMC)) 4 % of control and 15 % of control; (dose: 30.65 mg/kg/injection, schedule: Q01DX011 (ip), vehicle: carboxymethylcellulose (CMC)) 6 % of control and 29 % of control; (dose: 50.0 mg/kg/injection, schedule: Q01DX011 (ip), vehicle: saline) 8 % of control and 17 % of control; (dose: 57.0 mg/kg/injection, schedule: Q01DX011 (ip), vehicle: carboxymethylcellulose (CMC)) 3 % of control; (dose: 61.3 mg/kg/injection, schedule: Q01DX011 (ip), vehicle: carboxymethylcellulose (CMC)) 5 % of control.
Regarding `CCCNc1ncnc2c1cnn2C`, the T/C is 84 % of control (dose: 3.12 mg/kg/injection, schedule: Q01DX011 (ip), vehicle: methylcellulose (MC)); 101 % of control (dose: 3.12 mg/kg/injection, schedule: Q01DX011 (ip), vehicle: saline); 80 % of control (dose: 6.25 mg/kg/injection, schedule: Q01DX011 (ip), vehicle: methylcellulose (MC)); 86 % of control under setting [8]; 32 % of control (dose: 12.5 mg/kg/injection, schedule: Q01DX011 (ip), vehicle: methylcellulose (MC)); 19 % of control under setting [9]. Moreover, the T/C under setting [10] was 8 % of control.
For the compound `N#Cc1cn(Cc2ccco2)c(=O)[nH]c1=O`, the T/C under setting [2] was 54 % of control; the T/C (dose: 31.0 mg/kg/injection, schedule: Q01DX011 (ip), vehicle: methylcellulose (MC)) was 84 % of control; the T/C (dose: 62.0 mg/kg/injection, schedule: Q01DX011 (ip), vehicle: methylcellulose (MC)) is 80 % of control.
Take `CN(CC#N)/N=N/c1nc[nH]c1C(N)=O`: the T/C was 108 % of control (dose: 37.0 mg/kg/injection, schedule: Q01DX011 (ip), vehicle: carboxymethylcellulose (CMC)) and 73 % of control (dose: 75.0 mg/kg/injection, schedule: Q01DX011 (ip), vehicle: carboxymethylcellulose (CMC)).
With `C[C@H]1C[C@H]2[C@@H]3CC[C@](O)(C(=O)CF)[C@@]3(C)C[C@H](O)[C@]2(F)[C@@]2(C)C=CC(=O)C=C12`, the T/C reads like this: (dose: 0.62 mg/kg/injection, schedule: Q01DX011 (sc), vehicle: steriod suspending solution) 89 % of control; (dose: 1.0 mg/kg/injection, schedule: Q01DX011 (sc), vehicle: steriod suspending solution) 76 % of control; (dose: 1.25 mg/kg/injection, schedule: Q01DX011 (sc), vehicle: steriod suspending solution) 69 % of control; (dose: 10.0 mg/kg/injection, schedule: Q01DX011 (sc), vehicle: steriod suspending solution) 16 % of control and 29 % of control and 33 % of control; (dose: 20.0 mg/kg/injection, schedule: Q01DX011 (sc), vehicle: steriod suspending solution) 18 % of control and 27 % of control; (dose: 40.0 mg/kg/injection, schedule: Q01DX011 (sc), vehicle: steriod suspending solution) 11 % of control and 14 % of control. In addition, the T/C reads like this: (dose: 80.0 mg/kg/injection, schedule: Q01DX011 (sc), vehicle: steriod suspending solution) 14 % of control; (dose: 160.0 mg/kg/injection, schedule: Q01DX011 (sc), vehicle: steriod suspending solution) 4 % of control.
